Reference: patent US10851069B2, “Compositions of crystallized hydrophobic compounds and methods of making and using same” (Massachusetts Institute of Technology, priority 2016, dated 2020)

Legend:
[1] = tested on: C57BL/6 mice; assay: Crystalline drug-loaded alginate capsules, long-term IP/SC implantation, prevention of fibrosis; format: in vivo; conditions: crystalline form in alginate capsules, retrieved after 1, 3 and 6 months from IP space
Text: Lead compounds identified by screening the amorphous formulations (e.g., compounds of Formulae I-X, particularly LY215799, Dx, Curcumin, GW2580, QNZ and Ki20227) were studied for long-term release and prevention of fibrosis following encapsulation in crystalline form and implantation into the intraperitoneal (IP) space of C57BL/6 mice for long term testing. […] Drug extraction analysis by HPLC also determined that notable percentages (e.g., more than 50%) of the loaded drug remained within the retrieved capsules (FIG. 22D), particularly in the subcutaneous implanted samples. […] In contrast, capsules retrieved from the IP space 6 months post-implantation were identified with only 2-40% of the loaded drug remaining within the retrieved capsules.
All animal protocols were approved by the MIT Committee on Animal Care, and all surgical procedures and post-operative care was supervised by MIT Division of Comparative Medicine veterinary staff. Immune-competent male non-diabetic or STZ-induced diabetic C57BL/6 mice (Jackson Laboratory, Bar Harbor, Me.) were anesthetized with 3% isoflurane in oxygen and had their abdomens shaved and sterilized using betadine and isopropanol. Preoperatively, all mice also received a 0.05 mg/kg dose of buprenorphine subcutaneously as a pre-surgical analgesic, along with 0.3 mL of 0.9% saline subcutaneously to prevent dehydration. A […] incision was made along the midline of the abdomen and the peritoneal lining was exposed using blunt dissection. The peritoneal wall was then grasped with forceps and a 0.5-1 mm incision was made along the linea alba. A desired volume of spheres (all materials without islets, as well as SLG20 spheres encapsulating rat islets) were then loaded into a sterile pipette and implanted into the peritoneal cavity through the incision. The incision was then closed using 5-0 taper-tipped polydioxanone (PDS II) absorbable sutures. The skin was then closed over the incision using a wound clip and tissue glue.
At desired time points post-implantation or transplantation (with encapsulated islets), as specified in figures, mice were euthanized by CO2 administration, followed by cervical dislocation. In certain instances, 5 ml of ice cold PBS was first injected in order perform an intraperitoneal lavage to rinse out and collect free-floating intraperitoneal immune cells. An incision was then made using the forceps and scissors along the abdomen skin and peritoneal wall, and intraperitoneal lavage volumes were pipetted out into fresh 15 ml falcon tubes (each prepared with 5 ml of RPMI cell culture media). Next, a wash bottle tip was inserted into the abdominal cavity. KREBS buffer was then used to wash out all material spheres from the abdomen and into petri dishes for collection. After ensuring all the spheres were washed out or manually retrieved (if fibrosed directly to intraperitoneal tissues), they were transferred into 50 mL conical tubes for downstream processing and imaging. After intraperitoneal lavage and sphere retrieval, remaining fibrosed intraperitoneal tissues were also excised for downstream FACS and expression analyses.
For phase contrast imaging, retrieved materials were gently washed using Krebs buffer and transferred into 35 mm petri dishes for phase contrast microscopy using an Evos X1 microscope (Advanced Microscopy Group).
Immunofluorescence imaging was used to determine immune populations attached to spheres. […]

[2] = tested on: STZ-induced diabetic C57BL/6 mice; assay: Blood glucose monitoring after transplantation of encapsulated rat islets with or without drug; format: in vivo
Method: Immediately prior to encapsulation, the cultured islets were centrifuged at 1,400 rpm for 1 minute and washed with Ca-free Krebs-Henseleit (KH) Buffer (4.7 mM KCl, 25 mM HEPES, 1.2 mM KH2PO4, 1.2 mM MgSO4×7H2O, 135 mM NaCl, pH≈7.4, ≈290 mOsm). After washing, islets were centrifuged again and all supernatant was aspirated. The islet pellet was then re-suspended in a 2.0% solution of SLG20 alginate dissolved in 0.9% NaCl solution at an islet density of 1,000 islets per 1.0 ml alginate solution. Spheres were crosslinked using a BaCl2 gelling solution and their sizes were controlled using similar procedures as the empty spheres (described above). Immediately after crosslinking, the encapsulated islets were washed 4 times with HEPES buffer and 2 times with RPMI Medium 1640 with 10% HIFBS and cultured overnight at 37° C. for transplantation. As the islets had variable sizes (50-400 μm) and there was an inevitable loss of islets during the encapsulation process, the total number of encapsulated islets were recounted and converted into islet equivalents (IE, normalized to 150 μm size) based on a previously published method (Ricordi, C. et al. Islet isolation assessment in man and large animals. Acta 18 Diabetol. Lat. 27, 185195 (1990)) prior to transplantation.
All animal protocols were approved by the MIT Committee on Animal Care, and all surgical procedures and post-operative care was supervised by MIT Division of Comparative Medicine veterinary staff. Immune-competent male non-diabetic or STZ-induced diabetic C57BL/6 mice (Jackson Laboratory, Bar Harbor, Me.) were anesthetized with 3% isoflurane in oxygen and had their abdomens shaved and sterilized using betadine and isopropanol. Preoperatively, all mice also received a 0.05 mg/kg dose of buprenorphine subcutaneously as a pre-surgical analgesic, along with 0.3 mL of 0.9% saline subcutaneously to prevent dehydration. […]
Blood glucose levels were monitored three times a week following transplantation of islet-containing alginate capsules. […]

COc1ccc(COc2ccc(Cc3cnc(N)nc3N)cc2OC)cc1 [GW2580, 5-[[3-Methoxy-4-[(4-methoxyphenyl)methoxy]phenyl]methyl]-2,4-pyrimidinediamine]
fibrosis by phase contrast imaging and confocal microscopy [1]: fibrosis free | improvement of normoglycemia duration over controls ([2]; amorphous): 2 fold | improvement of normoglycemia duration over controls ([2]; crystalline): approximately 13 fold | duration of maintained normoglycemia ([2]; crystalline, 0.5 mm alginate microspheres): over 1.25 years
